Measurements: patent publication US7842808B2, “Anti-migraine spirocycles” (Bristol-Myers Squibb Company, priority 2002, dated 2010)

Each compound was assayed against T1, CGRP receptor (SK-N-MC cell membranes) (Homo sapiens, UniProt O60894+Q16602) (assay: CGRP Binding Assay ([125I]-CGRP radioligand binding, SK-N-MC homogenate)). Conditions: displacement of [125I]-CGRP, SK-N-MC homogenate; read-out: CGRP binding IC50.
T1 construct: endogenous in cells; host or cells: SK-N-MC cells (membrane homogenate)
T1 sequence (Q16602 23-461): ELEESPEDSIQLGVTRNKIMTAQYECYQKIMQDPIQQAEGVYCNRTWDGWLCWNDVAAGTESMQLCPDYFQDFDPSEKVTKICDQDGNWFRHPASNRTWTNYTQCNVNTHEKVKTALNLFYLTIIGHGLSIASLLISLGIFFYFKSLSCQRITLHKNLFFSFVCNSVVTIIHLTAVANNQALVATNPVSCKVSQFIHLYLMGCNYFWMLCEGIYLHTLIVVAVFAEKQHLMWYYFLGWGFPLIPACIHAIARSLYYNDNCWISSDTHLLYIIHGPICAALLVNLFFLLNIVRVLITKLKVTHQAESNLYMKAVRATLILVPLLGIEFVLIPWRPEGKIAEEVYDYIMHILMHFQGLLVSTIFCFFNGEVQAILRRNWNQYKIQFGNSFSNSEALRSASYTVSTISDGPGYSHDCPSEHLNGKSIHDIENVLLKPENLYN
T1 sequence (O60894 27-148): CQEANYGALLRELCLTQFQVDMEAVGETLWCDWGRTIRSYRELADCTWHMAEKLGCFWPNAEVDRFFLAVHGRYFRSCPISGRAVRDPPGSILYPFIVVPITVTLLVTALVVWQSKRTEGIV

Structure (SMILES) | IC50
O=C(NC(Cn1ccc(OCc2ccccc2)cc1=O)C(=O)N1CCC(N2CCCCC2)CC1)N1CCC(N2Cc3ccccc3NC2=O)CC1 (racemic) [Example 51, (±)-4-(2-Oxo-1,4-dihydro-2H-quinazolin-3-yl)-piperidine-1-carboxylic acid[1-(4-benzyloxy-2-oxo-2H pyridin-1-ylmethyl)-2-[1,4′]bipiperidinyl-1′-yl-2-oxo-ethyl]-amide] | > 1000 nM
O=C(Nc1ccccc1)N[C@@H](CC(=O)N1CCC(N2Cc3ccccc3NC2=O)CC1)C(=O)N1CCC(N2CCCCC2)CC1 [Example 143] | 100 to 1000 nM
O=C(Nc1ccccc1-c1ccccc1)N[C@@H](CC(=O)N1CCC(N2Cc3ccccc3NC2=O)CC1)C(=O)N1CCC(N2CCCCC2)CC1 [Example 197] | 100 to 1000 nM
O=C(Nc1c(F)cccc1F)N[C@@H](CC(=O)N1CCC(N2Cc3ccccc3NC2=O)CC1)C(=O)N1CCC(N2CCCCC2)CC1 [Example 163] | 100 to 1000 nM
O=C(Nc1cccc(Cl)c1Cl)N[C@@H](CC(=O)N1CCC(N2Cc3ccccc3NC2=O)CC1)C(=O)N1CCC(N2CCCCC2)CC1 [Example 148] | 10 to 100 nM
O=C(N[C@@H](CC(=O)N1CCC(N2Cc3ccccc3NC2=O)CC1)C(=O)N1CCC(N2CCCCC2)CC1)c1cccc(Cl)c1Cl [Example 123] | 10 to 100 nM
COC(=O)[C@@H](Cc1ccc2[nH]nnc2c1)NC(=O)N1CCC(N2Cc3ccccc3NC2=O)CC1 [Example 48, (R)-3-(1H-Benzotriazol-5-yl)-2-{[4-(2-oxo-1,4-dihydro-2H-quinazolin-3-yl)-piperidine-1-carbonyl]-amino}-propionic acid methyl ester] | > 1000 nM
O=C(N[C@@H](CC(=O)N1CCC(N2Cc3ccccc3NC2=O)CC1)C(=O)N1CCC(N2CCCCC2)CC1)c1cc(C(F)(F)F)cc(C(F)(F)F)c1 [Example 107] | 100 to 1000 nM
CCOC(=O)c1ccc(NC(=O)N[C@@H](CC(=O)N2CCC(N3Cc4ccccc4NC3=O)CC2)C(=O)N2CCC(N3CCCCC3)CC2)cc1 [Example 182] | 100 to 1000 nM
COC(=O)C(Cc1cc(C)c2[nH]ncc2c1)NC(=O)N1CCC2(CC1)OC(=O)Nc1ccccc12 (stereo not drawn) [Example 14, 3-(7-Methyl-1H-indazol-5-yl)-2-(1,2-dihydro-2-oxospiro-4H-3,1-dihydro-benzoxazine-4′4-piperidine-carbonylamino)-propionic acid methyl ester] | > 1000 nM
O=C(N[C@@H](CC(=O)N1CCC(N2Cc3ccccc3NC2=O)CC1)C(=O)N1CCC(N2CCCCC2)CC1)C1CC1 [Example 103] | 100 to 1000 nM
CCCCN1CCN(C(=O)C(Cc2ccc3[nH]ncc3c2)NC(=O)N2CCC(N3Cc4ccccc4NC3=O)CC2)CC1 (stereo not drawn) [Example 40c] | > 1000 nM
Cc1cc(Cl)ccc1NC(=O)N[C@@H](CC(=O)N1CCC(N2Cc3ccccc3NC2=O)CC1)C(=O)N1CCC(N2CCCCC2)CC1 [Example 191] | 100 to 1000 nM
O=C(NC(Cc1ccc(OCc2ccccc2)nc1)C(=O)N1CCC(N2CCCCC2)CC1)N1CCC(N2Cc3ccccc3NC2=O)CC1 (racemic) [Example 59, (±)-4-(2-Oxo-1,4-dihydro-2H-quinazolin-3-yl)-piperidine-1-carboxylic acid[1-(6-benzyloxy-pyridin-3-ylmethyl)-2-[1,4′]bipiperidinyl-1′-yl-2-oxo-ethyl]-amide] | 100 to 1000 nM
Cc1ccccc1NC(=O)N[C@@H](CC(=O)N1CCC(N2Cc3ccccc3NC2=O)CC1)C(=O)N1CCC(N2CCCCC2)CC1 [Example 141] | 100 to 1000 nM
O=C(N[C@@H](CC(=O)N1CCC(N2Cc3ccccc3NC2=O)CC1)C(=O)N1CCC(N2CCCCC2)CC1)c1cccc(Cl)c1 [Example 129] | 100 to 1000 nM
O=C(N[C@@H](CC(=O)N1CCC(N2Cc3ccccc3NC2=O)CC1)C(=O)N1CCC(N2CCCCC2)CC1)c1cccc(OC(F)(F)F)c1 [Example 121] | 100 to 1000 nM
O=C(N[C@@H](CC(=O)N1CCC(N2Cc3ccccc3NC2=O)CC1)C(=O)N1CCC(N2CCCCC2)CC1)c1ccc2c(c1)OCO2 [Example 114] | 100 to 1000 nM
O=C(N[C@@H](CC(=O)N1CCC(N2Cc3ccccc3NC2=O)CC1)C(=O)N1CCC(N2CCCCC2)CC1)c1cc(Cl)cc(Cl)c1 [Example 108] | 100 to 1000 nM
CCOc1ccccc1NC(=O)N[C@@H](CC(=O)N1CCC(N2Cc3ccccc3NC2=O)CC1)C(=O)N1CCC(N2CCCCC2)CC1 [Example 175] | 100 to 1000 nM
O=C(NC(Cc1ccc(=O)[nH]c1)C(=O)N1CCC(N2CCCCC2)CC1)N1CCC(N2Cc3ccccc3NC2=O)CC1 (racemic) [Example 60, (±)-4-(2-Oxo-1,4-dihydro-2H-quinazolin-3-yl)-piperidine-1-carboxylic acid[2-[1,4′]bipiperidinyl-1′-yl-2-oxo-1-(6-oxo-1,6-dihydro-pyridin-3-ylmethyl)-ethyl]-amide] | 100 to 1000 nM
COc1ccc(NC(=O)N[C@@H](CC(=O)N2CCC(N3Cc4ccccc4NC3=O)CC2)C(=O)N2CCC(N3CCCCC3)CC2)cc1 [Example 181] | 100 to 1000 nM
O=C(N[C@@H](CC(=O)N1CCC(N2Cc3ccccc3NC2=O)CC1)C(=O)N1CCC(N2CCCCC2)CC1)c1sc2ccccc2c1Cl [Example 125] | 100 to 1000 nM

Structure (SMILES) | IC50
O=C(NC(Cn1ccc(O)cc1=O)C(=O)N1CCC(N2CCCCC2)CC1)N1CCC(N2Cc3ccccc3NC2=O)CC1 (racemic) [Example 52, (±)-4-(2-Oxo-1,4-dihydro-2H-quinazolin-3-yl)-piperidine-1-carboxylic acid[2-[1,4′]bipiperidinyl-1′-yl-1-(4-hydroxy-2-oxo-2H-pyridin-1-ylmethyl)-2-oxo-ethyl]-amide] | > 1000 nM
O=C(Nc1ccc(Cl)cc1Cl)N[C@@H](CC(=O)N1CCC(N2Cc3ccccc3NC2=O)CC1)C(=O)N1CCC(N2CCCCC2)CC1 [Example 161] | 10 to 100 nM
O=C(N[C@@H](CC(=O)N1CCC(N2Cc3ccccc3NC2=O)CC1)C(=O)N1CCC(N2CCCCC2)CC1)c1cc[nH]n1 [Example 101, (L)-1H-Pyrazole-3-carboxylic acid{1-([1,4′]bipiperidinyl-1′-carbonyl)-3-oxo-3-[4-(2-oxo-1,4-dihydro-2H-quinazolin-3-yl)-piperidin-1-yl]-propyl}-amide] | > 1000 nM
CC(=O)c1cccc(NC(=O)N[C@@H](CC(=O)N2CCC(N3Cc4ccccc4NC3=O)CC2)C(=O)N2CCC(N3CCCCC3)CC2)c1 [Example 147] | 100 to 1000 nM
O=C(O)C(Cc1ccc2[nH]ncc2c1)NC(=O)N1CCC(N2Cc3ccccc3NC2=O)CC1 (racemic) [Example 1, (±)-3-(1H-Indazol-5-yl)-2-{[4-(2-oxo-1,4-dihydro-2H-quinazolin-3-yl)-piperidine-1-carbonyl]-amino}-propionic acid] | 100 to 1000 nM
O=C(N[C@@H](CC(=O)N1CCC(N2Cc3ccccc3NC2=O)CC1)C(=O)N1CCC(N2CCCCC2)CC1)c1ccc(Br)cc1 [Example 119] | 100 to 1000 nM
O=C(Nc1ccc(Br)cc1)N[C@@H](CC(=O)N1CCC(N2Cc3ccccc3NC2=O)CC1)C(=O)N1CCC(N2CCCCC2)CC1 [Example 179] | 100 to 1000 nM
Cc1cc(CC(NC(=O)N2CCC(N3Cc4ccccc4NC3=O)CC2)C(=O)O[C@@H](C)c2ccncc2)cc2cn[nH]c12 (stereo partly drawn) [Example 41f, 3-(7-Methyl-1H-indazol-5-yl)-2-{[4-(2-oxo-1,4-dihydro-2H-quinazolin-3-yl)-piperidine-1-carbonyl]-amino}-propionic acid(S)-1-pyridin-4-yl-ethyl ester] | 10 to 100 nM
O=C(Nc1ccccc1Cl)N[C@@H](CC(=O)N1CCC(N2Cc3ccccc3NC2=O)CC1)C(=O)N1CCC(N2CCCCC2)CC1 [Example 172] | 10 to 100 nM
Cc1cc(CC(NC(=O)N2CCC3(CC2)CC(=O)Nc2ccccc23)C(=O)N(C)C)cc2cn[nH]c12 (racemic) [Example 33, (±)-[1-Dimethylcarbmoyl-2-(7-methyl-1H-indazol-5-yl)-ethy]1-3′,4′-dihydro-2′-oxospiro-[piperidine-4,4′-(1H)-quinoline]-1-carboxamide] | 100 to 1000 nM
O=C(Nc1ccc(-c2ccccc2)cc1)N[C@@H](CC(=O)N1CCC(N2Cc3ccccc3NC2=O)CC1)C(=O)N1CCC(N2CCCCC2)CC1 [Example 144] | 100 to 1000 nM
CCCCC(CC)CN1CCN(C(=O)C(Cc2ccc3[nH]ncc3c2)NC(=O)N2CCC(N3Cc4ccccc4NC3=O)CC2)CC1 (stereo not drawn) [Example 40f] | > 1000 nM
O=C(Nc1cc(F)ccc1F)N[C@@H](CC(=O)N1CCC(N2Cc3ccccc3NC2=O)CC1)C(=O)N1CCC(N2CCCCC2)CC1 [Example 184] | 10 to 100 nM
O=C(NC(Cc1ccc2[nH]ncc2c1)C(=O)N1CCN(C/C=C/c2ccccc2)CC1)N1CCC(N2Cc3ccccc3NC2=O)CC1 (stereo not drawn) [Example 40j] | > 1000 nM
COc1ccc(OC)c(NC(=O)N[C@@H](CC(=O)N2CCC(N3Cc4ccccc4NC3=O)CC2)C(=O)N2CCC(N3CCCCC3)CC2)c1 [Example 174] | 100 to 1000 nM
COc1ccc(OC(=O)N[C@@H](CC(=O)N2CCC(N3Cc4ccccc4NC3=O)CC2)C(=O)N2CCC(N3CCCCC3)CC2)cc1 [Example 134] | 100 to 1000 nM
O=C(N[C@@H](CC(=O)N1CCC(N2Cc3ccccc3NC2=O)CC1)C(=O)N1CCC(N2CCCCC2)CC1)c1ccc(Cl)c(Cl)c1 [Example 111] | 100 to 1000 nM
Cc1cc(CC(NC(=O)N2CCC3(CC2)CC(=O)Nc2ccccc23)C(=O)N2CCCCC2)cc2cn[nH]c12 (racemic) [Example 32, (±)-1-(7-Methyl-1H-indazol-5-ylmethyl)-2-[1-piperidinyl]-2-oxoethyl]3′,4′-dihydro-2′-oxospiro-[piperidine-4,4′-(1H)-quinoline]-1-carboxamide] | 100 to 1000 nM
Cc1c(Cl)cccc1NC(=O)N[C@@H](CC(=O)N1CCC(N2Cc3ccccc3NC2=O)CC1)C(=O)N1CCC(N2CCCCC2)CC1 [Example 192] | 100 to 1000 nM
CCOc1ccc(NC(=O)N[C@@H](CC(=O)N2CCC(N3Cc4ccccc4NC3=O)CC2)C(=O)N2CCC(N3CCCCC3)CC2)cc1 [Example 189] | 100 to 1000 nM
O=C(OCc1ccccc1C(=O)N[C@@H](CC(=O)N1CCC(N2Cc3ccccc3NC2=O)CC1)C(=O)N1CCC(N2CCCCC2)CC1)c1ccccc1 [Example 118] | 100 to 1000 nM
COc1cccc(NC(=O)N[C@@H](CC(=O)N2CCC(N3Cc4ccccc4NC3=O)CC2)C(=O)N2CCC(N3CCCCC3)CC2)c1 [Example 150] | 10 to 100 nM
